Assay results published in US12570648B2, “6,7-dihydro-5H-pyrido[2,3-c]pyridazine derivatives and related compounds as Bcl-xL protein inhibitors and pro-apoptotic agents for treating cancer” (LES LABORATOIRES SERVIER, priority 2019, dated 2026).
pIC50: −log10 of the molar value.

These compounds were tested on MOLT-4 cells (assay: MOLT-4 cell viability using MTT assay). Settings: Homo sapiens, MOLT-4, 48 h, 48 h exposure.
Assay type: cell-based
Description: MTT colorimetric assay is based on the mitochondrial reduction of tetrazolium salt by living cells.
Cells were cultured at 37° C. in a humidified atmosphere containing 5% CO2. […] At the end of incubation time, 15 μL of MTT solution (5 mg/ml) were added per well and the cells were incubated for another 4 h. […] IC50s were calculated using standard four-parametric curve fitting.

Row | Compound | pIC50
1 | Cc1c(Nc2nc3ccccc3s2)nnc2c1CCCN2c1ccc(-c2cnn(CC34CC5(C)CC(C)(C3)CC(OCCN(CCCO)CCCO)(C5)C4)c2C)c(C(=O)O)n1 [Example 137, 6-[3-(1,3-benzothiazol-2-ylamino)-4-methyl-6,7-dihydro-5H-pyrido[2,3-c]pyridazin-8-yl]-3-[1-[[3-[2-[bis(3-hydroxypropyl)amino]ethoxy]-5,7-dimethyl-1-adamantyl]methyl]-5-methyl-pyrazol-4-yl]pyridine-2-carboxylic acid] | 8.24
2 | Cc1c(Nc2nc3ccccc3s2)nnc2c1CCCN2c1ccc(-c2cnn(CC34CC5(C)CC(C)(C3)CC(OCCNCCCO)(C5)C4)c2C)c(C(=O)O)n1 [Example 138, 6-[3-(1,3-benzothiazol-2-ylamino)-4-methyl-6,7-dihydro-5H-pyrido[2,3-c]pyridazin-8-yl]-3-[1-[[3-[2-(3-hydroxypropylamino)ethoxy]-5,7-dimethyl-1-adamantyl]methyl]-5-methyl-pyrazol-4-yl]pyridine-2-carboxylic acid] | 9.00
3 | Cc1c(Nc2nc3ccccc3s2)nnc2c1CCCN2c1ccc(-c2cnn(CC34CC5CC(C3)CC(OCCN3CCCC3)(C5)C4)c2C)c(C(=O)O)n1 [Example 155, 6-[3-(1,3-benzothiazol-2-ylamino)-4-methyl-6,7-dihydro-5H-pyrido[2,3-c]pyridazin-8-yl]-3-[5-methyl-1-[[3-(2-pyrrolidin-1-ylethoxy)-1-adamantyl]methyl]pyrazol-4-yl]pyridine-2-carboxylic acid] | 9.27
4 | Cc1c(Nc2nc3ccccc3s2)nnc2c1CCCN2c1ccc(-c2cnn(CC34CC5CC(C3)CC(OCCN(C)C)(C5)C4)c2C)c(C(=O)O)n1 [Example 154, 6-[3-(1,3-benzothiazol-2-ylamino)-4-methyl-6,7-dihydro-5H-pyrido[2,3-c]pyridazin-8-yl]-3-[1-[[3-[2-(dimethylamino)ethoxy]-1-adamantyl]methyl]-5-methyl-pyrazol-4-yl]pyridine-2-carboxylic acid] | 9.35

Further lines, results first:

Row | pIC50 | Compound
5 | < 7.00 | Cc1c(Nc2nc3ccccc3s2)nnc2c1CCCN2c1ccc(-c2cnn(CC34CC5CC(C3)CC(OCCNCC[C@H](O)CO)(C5)C4)c2C)c(C(=O)O)n1 [Example 160, 6-[3-(1,3-benzothiazol-2-ylamino)-4-methyl-6,7-dihydro-5H-pyrido[2,3-c]pyridazin-8-yl]-3-[1-[[3-[2-[[(3S)-3,4-dihydroxybutyl]amino]ethoxy]-1-adamantyl]methyl]-5-methyl-pyrazol-4-yl]pyridine-2-carboxylic acid]
6 | 9.89 | COc1ccc2sc(Nc3nnc4c(c3C)CCCN4c3ccc(-c4cnn(CC56CC7(C)CC(C)(C5)CC(OCCN5CCCC5)(C7)C6)c4C)c(C(=O)O)n3)nc2c1 [Example 180, 3-[1-[[3,5-dimethyl-7-(2-pyrrolidin-1-ylethoxy)-1-adamantyl]methyl]-5-methyl-pyrazol-4-yl]-6-[3-[(5-methoxy-1,3-benzothiazol-2-yl)amino]-4-methyl-6,7-dihydro-5H-pyrido[2,3-c]pyridazin-8-yl]pyridine-2-carboxylic acid]
